{"source": "patent US20060241067A1", "about": "“Methods For inhibiting angiogenesis, cell migration, cell adhesion, and cell survival” (priority 2002, published 2006)", "key": {"[1]": {"test_system": "HUVECS", "assay": "Annexin V-FITC staining of HUVECs (apoptosis)", "type": "cell-based, human", "details": "cells on vitronectin, PTHrP, 250 μM dibutyryl cAMP or transfection", "method": "Plates were also coated with […] goat anti-mouse IgG (Southern Biotechnology Associates, Inc., Birmingham, Ala.) at 37° C. for 2 h, rinsed, blocked with denatured BSA, and then incubated with […] anti-a5b1 or control IgG (anti-MHC) at 4° C. for 16 hrs. HUVECs were incubated on plates in the presence or absence of 10 mg/ml anti-α5β1, -αvβ3, -α2β1, or -MHC for 0-24 hrs. In some experiments, HUVECs were incubated with antibodies and […] caspase-3, -8 or -9 inhibitors or vehicle control (0.5% DMSO). Cells were then incubated with Annexin V-FITC for 15 min at room temperature in the dark. Washed cells were fixed in 1% paraformaldehyde, then incubated in DAPI. The percentage of Annexin positive cells in 5 microscopic fields was determined at 200× magnification by fluorescence microscopy.\nHUVECs were plated for 24 h on ECM protein-coated plates in the presence of anti-αvβ3 or anti-α5β1, 1 μM HA1004 (a PKA inhibitor), and anti-αvβ3 or anti-α5β1 with 1 μM HA1004. Cells were stained with FITC-Annexin V or immunoblotted with anti-cleaved caspase 3 antibodies as described above. 5×10^6 HUVECs were electroporated in 300 μl of EGM with 30 μg of DNA (20 μg dnPKA or PKAcat plasmids, 2 μg N1-GFP and 8 μg pBluescript) at 300 V, 450 μF as previously described (Dormond et al. (2001) Nature Med. 7,1041-7). Expression of transgenes was determined by Western blotting of cell lysates with anti-V5 and anti-GFP antibodies. Transfection efficiency was quantified by determining the percent of cells that were co-transfected with GFP-expression vectors. Eighty-percent transfection efficiency was generally achieved using this electroporation method."}, "[2]": {"test_system": "chick chorioallantoic membrane (CAM)", "assay": "Chick chorioallantoic membrane (CAM) angiogenesis assay", "type": "in vivo, chicken", "details": "bFGF stimulated CAMs; 250 μM cAMP or 4 μg plasmid"}}, "note": "Entries after “also recorded” stand apart in the source; their conditions may differ."}
{"compound": "CCCC(=O)Nc1ncnc2c1ncn2[C@@H]1O[C@@H]2COP(=O)(O)O[C@H]2[C@H]1OC(=O)CCC", "note": "[dibutyryl cAMP]", "values": [{"measurement": "apoptosis of endothelial cells (annexin V positive cells)", "setting": "[1]", "result": "induced apoptosis in endothelial cells"}, {"measurement": "apoptosis of endothelial cells (annexin V positive cells)", "setting": "[1]; listed as cAMP", "result": "significantly induce apoptosis"}, {"measurement": "angiogenesis (blood vessel branch points)", "setting": "[2]", "result": "completely suppresses angiogenesis; also recorded: potently inhibits angiogenesis"}]}
